Paper PMC12298391, “Novel Lung Cell-Penetrating Peptide Targets Alveolar Epithelial Type II Cells, Basal Cells, and Ionocytes” (Pharmaceutics, 2025)
Where a SMILES comes first, the peptide text is derived from it. The star is where a group is joined. X1 = CN1C(=CC=CC=CC2=[N+](CCCCCC(=O)*)c3ccc4ccccc4c3C2(C)C)C(C)(C)c2c1ccc1ccccc21

What was measured:
[1] = system: SARS-CoV-2 (strain USA_WA1/2020); assay: microbe, parasite or virus in culture; format: cell-based; settings: Severe acute respiratory syndrome coronavirus 2; HBEC inserts, air-liquid interface; treatment apical and basolateral 24 h prior to infection; MOI ~0.0015 CCID50 per cell; virus collected after 5 days, titrated on Vero 76; triplicate; read-out: EC90 (inhibition of viral replication)
[2] = Serum stability in fetal bovine serum, mass spectrometry; format: in vitro ADME; settings: 10 µg/mL, 37 °C/5% CO2, 0-360 min, acetonitrile precipitation, C-peptide internal standard, LC-MS full scan peak area, triplicate
Experimental: At the end of each incubation time point, the tubes were removed and placed on ice; 25 µL of 1 µM C-peptide as an internal standard was added to the tube and vigorously vortexed for 15 s, followed by the addition of 500 μL of acetonitrile to each tube, vortexing for 30 secs, and centrifugation at maximum speed in a tabletop centrifuge for 5 min at 4 °C. The clear supernatant was transferred to a new tube and analyzed using mass spectrophotometry. A full MS scan was performed from 600.0 to 725.0 m/z (mass/charge) without fragmentations in positive polarity at a resolution of 70,000 (the range option is 17,500–140,000). The maximum injection time was 200 msec. The gas flow rates in arbitrary units were as follows: 48 for sheath, 11 for auxiliary, and 3 for sweep. The spray voltage was 4.00 kV, with a spray current of 5.90µA, a capillary temperature of 320 °C, and an auxiliary gas temperature of 250 °C with the S-lens Radio Frequency (RF) set to 50 (arbitrary units from 0 to 100). […] Intensities were quantified as the peak area containing all ion species within the specified m/+2 range. Then, 20 µL of the sample was injected onto an Eclipse Plus C18 column (1.8 um; 2.1 × 50 mm) at 45 °C at a rate of 0.3 mL/min and eluted with a gradient of acetonitrile (in 0.1% formic acid) using water in 0.1% formic acid as the aqueous phase. […]

[3] = system: Human bronchial epithelial cells; assay: Confocal microscopy of peptide uptake by HBECs; format: cell-based; settings: 10 μM Cy5.5 peptide, 2, 10 and 30 min, 37 °C
Experimental: Identification and biodistribution of lung-targeting peptides: Eleven “alanine mutant” versions of CTP were synthesized along with the 6 N-terminus CTP-A (APWHLS) and 6 C-terminus CTP-B (SQYSRT), along with CTP peptide as a standard comparison. H9C2 cells, a rat cardiomyoblast cell line, were incubated with 10 μM of the fluorescent peptides, and FACS was performed (Figure 1A). H9C2 cells were chosen because initial phage display studies that led to the identification of CTP were conducted in this cell line, and we had prior evidence of successful transduction of these cells with CTP, which we used as a reference for comparing the alanine mutants. […]. These were injected intravenously in wild-type CD1 mice at a dose of 10 mg/kg. Counter to our expectations, uptake in the heart was negligible. […]; Supplementary Figure S1). […]
Supplemental Figure S2: Human bronchial epithelial cells transduce robustly with LTPs.
Human bronchial epithelial cells were plated on cover slips and treated with 10μM of linear
3x with pre-warmed PBS, fixed, counterstained with DAPI and confocal microscopy
have a cytoplasmic, peri-nuclear localization. Random peptide has very little to no uptake.
(1 picture or pasted object on this page, not shown here)

[4] = system: human Cystic Fibrosis bronchial epithelial cells (CFBE41o-); assay: Transferrin uptake assay, colocalization with endocytosed Alexa-488 transferrin; format: cell-based; settings: confocal; for Uptake by CFBE41o- cells over time: 4 °C, then 5 and 30 min at 37 °C; for Co-localization with endocytosed Alexa-488 transferrin: serum-starved cells, Cy5.5 peptides
Experimental: Endocytosis studies: In order to investigate the mechanism of cell entry, human bronchial epithelial cells (HBECs) were serum-starved overnight and subsequently treated with specific endocytic pathway inhibitors. […] At the end of the incubation period, the cells were washed, trypsinized, harvested, and fixed with 2% PFA for 10 min at room temperature (RT), followed by a single wash and resuspension in PBS, and they were subjected to FACS analysis. […] The cells were washed with cold PBS, incubated with Alexa-488-labeled transferrin on ice in a cold room, and incubated for an hour. At the end of incubation, Cy5.5-labeled random, linear or cyclic LTPs were added and transferred to 37 °C, and after each time point, the cells were washed and fixed in 4% PFA. The cells were stained with Hoechst and mounted for confocal imaging.
Figure 5 Cystic Fibrosis bronchial epithelial cells (CFBE41o-) uptake S7A and R11A without colocalization with endocytosed transferrin. CFBE41o- cells were serum-starved, followed by incubation with transferrin-488, or Cy5.5-labeled linear or cyclic Random, S7A, or R11A, followed by fixation at indicated time points, and confocal microscopy performed. […] (A). Linear peptide colocalization. (B). Cyclic peptide colocalization. (C). Quantification of relative fluorescence of cyclic peptides. ** p < 0.01, *** p < 0.001.

[5] = system: lung cell types of wild-type mice; assay: Confocal microscopy of lung sections of injected mice cross-stained with cell markers; format: in vivo, mouse; settings: 10 mg/kg i.v., 15 min, N = 3
Experimental: Animal studies: All animal protocols were approved by the University of Pittsburgh and the Mayo Clinic’s Institutional Animal Care and Use Committee. Wild-type, 6-week-old, CD1 (Charles Rivers, Wilmington, MA, USA; Cat #022) mice were weighed and anesthetized with an intraperitoneal injection of a 1:1 cocktail of Ketamine–Xylazine at 1–2 μL/gm body weight, followed by intravenous injection with Cy5.5-labeled peptides that were allowed to circulate for various time points. At the end of the circulation times, the mice were euthanized using inhalational CO2, their chest cavity was opened, their right atrium nicked and 3–5 mL of 10% formalin was injected through the left ventricular apex to perfusion-fix the animals. Various organs were harvested, rinsed once in PBS and imaged using an In Vivo Imaging System (IVIS; PerkinElmer Inc., Waltham, MA, USA) with identical instrument settings (stage position, exposure time, binning, F-stop, etc.). The organs were placed in 10% formalin at RT for 4 h, transferred to 15% sucrose at 4 °C overnight, followed by 30% sucrose at 4 °C overnight, before being embedded and cryo-sectioned at 6 μM thickness. […]

[6] = mouse, in vivo, iv, 5 mg/kg
Experimental: (§1) Wild-type, 6-week-old, CD1 (Charles Rivers, Wilmington, MA, USA; Cat #022) mice were weighed and anesthetized with an intraperitoneal injection of a 1:1 cocktail of Ketamine–Xylazine at 1–2 μL/gm body weight, followed by intravenous injection with Cy5.5-labeled peptides that were allowed to circulate for various time points. At the end of the circulation times, the mice were euthanized using inhalational CO2, their chest cavity was opened, their right atrium nicked and 3–5 mL of 10% formalin was injected through the left ventricular apex to perfusion-fix the animals. Various organs were harvested, rinsed once in PBS and imaged using an In Vivo Imaging System (IVIS; PerkinElmer Inc., Waltham, MA, USA) with identical instrument settings (stage position, exposure time, binning, F-stop, etc.). The organs were placed in 10% formalin at RT for 4 h, transferred to 15% sucrose at 4 °C overnight, followed by 30% sucrose at 4 °C overnight, before being embedded and cryo-sectioned at 6 μM thickness. The sections were cross-stained with various primary antibodies for ATII cells (ABCA3), basal cells (p63, KRT5), ionocytes (FOXI1), goblet cells (MUC5AC), ATI cells (HOPX), ciliated cells (acetylated tubulin), club cells (Uteroglobin), pulmonary endothelial cells (CD31), and airway smooth muscle cells (α-SMA) overnight at 4 °C. The sections were washed and incubated with Alexa-Fluor-488-conjugated secondary antibody at RT for 1 h. Additionally, kidney sections were stained with Lotus tetragonolobus Lectin-FITC (LTL-FITC) at RT for 1 h. All sections were then washed and mounted with DAPI, and confocal microscopy was performed. All peptides and time points were tested in triplicate (N = 3).

wild-type CD1 mice = settings: 15 min, N = 3; for Uptake in the heart: confocal
Experimental: as §1

## CCC(CC)COC(=O)[C@H](C)N[P@](=O)(OC[C@H]1O[C@@](C#N)(c2ccc3c(N)ncnn23)[C@H](O)[C@@H]1O)Oc1ccccc1 [Remdesivir]
[1]
  EC90: 19 nM

## CC(C)C[C@H](NC(=O)[C@H](Cc1c[nH]cn1)NC(=O)[C@H](Cc1c[nH]c2ccccc12)NC(=O)[C@@H]1CCCN1C(=O)[C@H](C)NC(=O)CCCCC[N+]1=C(C=CC=CC=C2N(C)c3ccc4ccccc4c3C2(C)C)C(C)(C)c2c1ccc1ccccc21)C(=O)N[C@@H](CO)C(=O)N[C@@H](CO)C(=O)N[C@@H](CCC(N)=O)C(=O)N[C@@H](Cc1ccc(O)cc1)C(=O)N[C@@H](CO)C(=O)N[C@@H](C)C(=O)N[C@H](C(N)=O)[C@@H](C)O [R11A]
[2]
  Serum stability: susceptibility to immediate degradation upon exposure to serum
[3]
  Uptake by HBECs (confocal): taken up at 10 min with uptake increasing at 30 min
[4]
  Uptake by CFBE41o- cells over time: increasing uptake at 5 and 30 min
  Co-localization with endocytosed Alexa-488 transferrin: did not show co-localization
[5]
  Uptake in AT2 and p63+ cells (confocal) compared with cR11A: much lesser amounts
  Uptake in ionocytes, AT-1, club, ciliated, goblet, endothelial and smooth muscle cells (confocal): no uptake
[6]
  tissue to tissue ratio at 0.25 h: 8
wild-type CD1 mice; 1 mg/kg i.v., ex vivo IVIS
  Lung uptake at lowest dose: robust lung uptake
wild-type CD1 mice; 10 mg/kg i.v., CD1 mice
  Uptake in the heart: negligible

## CC(C)C[C@H](NC(=O)[C@H](Cc1c[nH]cn1)NC(=O)[C@H](Cc1c[nH]c2ccccc12)NC(=O)[C@@H]1CCCN1C(=O)[C@H](C)NC(=O)CCCCC[N+]1=C(C=CC=CC=C2N(C)c3ccc4ccccc4c3C2(C)C)C(C)(C)c2c1ccc1ccccc21)C(=O)N[C@@H](CO)C(=O)N[C@@H](C)C(=O)N[C@@H](CCC(N)=O)C(=O)N[C@@H](Cc1ccc(O)cc1)C(=O)N[C@@H](CO)C(=O)N[C@@H](CCCNC(=N)N)C(=O)N[C@H](C(N)=O)[C@@H](C)O [S7A] (X1-APWHLSAQYSRT-NH2; C-terminus assumed)
[3]
  Uptake by HBECs (confocal): taken up at 10 min with uptake increasing at 30 min
[4]
  Uptake by CFBE41o- cells over time: increasing uptake at 5 and 30 min
  Co-localization with endocytosed Alexa-488 transferrin: did not show co-localization
[6]
  tissue to tissue ratio at 0.25 h: ~2.5
wild-type CD1 mice; 10 mg/kg i.v., CD1 mice
  Uptake in the heart: negligible
wild-type CD1 mice; 10 mg/kg i.v., CD1 mice, confocal/IVIS
  Lung uptake: robust lung uptake

## TALACYPHTVGQ [RAN, scrambled, random peptide […] used as control, reference compound]
[3]
  Uptake by HBECs (confocal): no uptake
